Measurements from PMC4794209, “Preformulation Studies on Piperlongumine” (PLoS ONE, 2016).
In brackets after ≈: the same amount, converted by molar mass. Read-outs that look alike come from different tables or passages of the source.

Columns and labels:
Type in all cases: physicochemical
[1] = Solubility studies (excess drug, agitation at least 24 h, HPLC)
Experimental: Solubility of piperlongumine was determined in purified water and the following cosolvent and surfactant systems: 5, 15, 30% (v/v) acetonitrile; 5, 15, 30, 50, 100% (v/v) of polyethylene glycol 400 (PEG 400), ethanol, glycerin and propylene glycol; 3, 7, 10% (w/v) of Tween 80; 2.5, 5, 10% (w/v) of Cremophor Rh 40; and a solution composition of 10% ethanol: 40% PEG 400 (w/v). Additionally, the complexing agents, sulfobutyl ether β-cyclodextrin sodium salt and hydroxyl-propyl-β-cyclodextrin, were examined at concentrations of 5, 10, 20, 40% (w/v).
An excess quantity of raw drug crystals were placed in a known volume of each medium in closed, light protected glass vials and allowed to agitate for at least 24 hours at ambient temperature. Samples were visually inspected to ensure that solid drug was still in excess and then filtered through a 0.2 μm PTFE filter. The filtrate was assayed via the previously described HPLC method and the concentration of piperlongumine in solution was determined.

[2] = as above; remark: listed apart in the source
[3] = Photo-stability (UV sunlamps, 165 min); conditions: for Photo-degradation: UV exposure
Experimental: Photo-stability was examined by preparing four groups of samples, each containing a triplicate sample and one reference (protected from light). These groups covered high and low drug concentrations in the following compositions:
• 150 μg/ml of drug in 100% acetonitrile • 150 μg/ml of drug in 15:85 acetonitrile: water • 30 μg/ml of drug in 100% acetonitrile • 30 μg/ml of drug in 15:85 acetonitrile: water
Each sample was prepared in a transparent glass vial and closed without any entrapped air. A reference sample was utilized for each group by covering one of the vials with aluminum foil to protect it from the light exposure. All vials were exposed for 165 min using Sun 340 sunlamps yielding UV emission between 295 and 390 nm to include UVA and UVB wavelengths. Samples were placed in an area where the UV intensity was measured to be 1.57 mw/cm^2. After the exposure time, samples were analyzed using the HPLC method described previously.

[4] = Aqueous stability studies (pH, temperature, ionic strength)
Experimental: Aqueous stability studies for piperlongumine were conducted in three buffer systems: citrate (pH 3, 4, and 5); phosphate (pH 5, 6, and 7); and borate (pH 8 and 9). The ionic strength for the solutions was also varied, utilizing approximately 0.2 or 0.5 M. Each buffered sample was prepared with 10% acetonitrile as a cosolvent, then sealed and protected from light. Samples were stored at four different temperatures: 4°C (for samples at pH 3, 8 and 9 only), 26°C, 56°C and 67°C. Aliquots were regularly withdrawn for analysis. Changes in pH, if any, were also monitored. Stability studies were carried out for 18 months or until complete degradation occurred.
Apparent first order degradation was also obtained for the 4, […] and 67°C degradation profiles. Degradation rate constants, k-values, for piperlongumine were calculated using the slopes of the trend lines of each profile.
An Arrhenius plot of log k versus the reciprocal of the temperature (Fig 9) was utilized to determine the length of time it takes for piperlongumine to degrade 50% (T50) and 10% (T90). For a given pH the Arrhenius equation was utilized: Log k = log A − (Ea/2.303 RT) (1) Where: […]

[5] = pH 3, citrate, ionic strength 0.2, 25°C
[6] = pH 3, citrate, ionic strength 0.5, 25°C
[7] = pH 5, citrate, ionic strength 0.2, 25°C
[8] = pH 5, phosphate, ionic strength 0.2, 25°C
[9] = pH 5, phosphate, ionic strength 0.5, 25°C
[10] = pH 6, phosphate, ionic strength 0.2, 25°C
[11] = pH 7, phosphate, ionic strength 0.2, 25°C
[12] = pH 8, borate, ionic strength 0.2, 25°C
[13] = pH 9, borate, ionic strength 0.2, 25°C
[14] = pH 9, borate, ionic strength 0.5, 25°C

## COc1cc(/C=C/C(=O)N2CCC=CC2=O)cc(OC)c1OC [piperlongumine, 1-[(2E)-3-(3,4,5-trimethoxyphenyl)prop-2-enoyl]-1,2,5,6-tetrahydropyridin-2-one]
[1]; 10% (w/v) Cremophor Rh 40, aqueous with cosolvent or surfactant or cyclodextrin, thermodynamic from solid, 10% (w/v) Cremophore Rh 40, read-out: Solubility
  solubility: ~550 µg/mL (≈ 1.73 mM)
[1]; 10% (w/v) Tween 80, aqueous with cosolvent or surfactant or cyclodextrin, thermodynamic from solid, 10% Tween 80, read-out: Solubility
  solubility: ~700 µg/mL (≈ 2.21 mM)
[1]; 10% ethanol: 40% PEG 400 (w/v), aqueous with cosolvent or surfactant or cyclodextrin, thermodynamic from solid, read-out: Solubility
  solubility: ~1700 µg/mL (≈ 5.36 mM)
[1]; 10% ethanol: 40% PEG 400 (w/v), read-out: Solubility
  solubility: 1000 µg/mL (≈ 3.15 mM)
[1]; 20% (w/v) hydroxypropyl-β-cyclodextrin, aqueous with cosolvent or surfactant or cyclodextrin, thermodynamic from solid, read-out: Solubility
  solubility: ~1000 µg/mL (≈ 3.15 mM)
[1]; 20% (w/v) hydroxypropyl-β-cyclodextrin, read-out: Solubility
  solubility: 1000 µg/mL (≈ 3.15 mM)
[1]; 20% (w/v) sulfobutyl ether β-cyclodextrin, aqueous with cosolvent or surfactant or cyclodextrin, thermodynamic from solid, read-out: Solubility
  solubility: ~1000 µg/mL (≈ 3.15 mM)
[1]; 30% (v/v) acetonitrile, aqueous with cosolvent or surfactant or cyclodextrin, thermodynamic from solid, 30% acetonitrile, read-out: Solubility
  solubility: 1600 µg/mL (≈ 5.04 mM)
[1]; 30% acetonitrile vs water
  Fold improvement in solubility: 63 fold
[1]; 50% (v/v) PEG 400, aqueous with cosolvent or surfactant or cyclodextrin, thermodynamic from solid, 50% PEG 400, read-out: Solubility
  solubility: ~1100 µg/mL (≈ 3.47 mM)
[1]; 50% (v/v) ethanol, aqueous with cosolvent or surfactant or cyclodextrin, thermodynamic from solid, 50% ethanol, read-out: Solubility
  solubility: ~2300 µg/mL (≈ 7.25 mM)
[1]; 100% PEG 400, organic solvent or mixture, thermodynamic from solid, pure PEG 400, read-out: Solubility
  solubility: ~22000 µg/mL (≈ 69.3 mM)
[1]; 100% ethanol, organic solvent or mixture, thermodynamic from solid, pure ethanol, read-out: Solubility
  solubility: ~11000 µg/mL (≈ 34.7 mM)
[1]; cosolvents and cyclodextrins
  Concentrations afforded: ≥ 1000 µg/mL
[1]; purified water, ambient temperature, read-out: Solubility in water (intrinsic solubility)
  solubility: ~26 µg/mL (≈ 0.0819 mM)
[1]; thermodynamic from solid, purified water, ambient temperature, read-out: Solubility in water (intrinsic solubility)
  solubility: 26 ± 2.9 µg/mL (≈ 0.0819 mM)
[2]
  Water solubility as a function of pH: does not change as a function of pH
[3]; 30 μg/ml, acetonitrile:water 15:85, UV 165 min
  Average % of drug remaining ± SD: 79.0 ± 0.1%
[3]; 30 μg/ml, acetonitrile:water 100:00, UV 165 min
  Average % of drug remaining ± SD: 39.5 ± 0.03%
[3]; 150 μg/ml, acetonitrile:water 15:85, UV 165 min
  Average % of drug remaining ± SD: 82.3 ± 0.6%
[3]; 150 μg/ml, acetonitrile:water 100:00, UV 165 min
  Average % of drug remaining ± SD: 44.5 ± 0.2%
[3]; 15:85 acetonitrile: water
  Photo-degradation: approximately 20%
[3]; light protected control samples, after exposure duration
  Concentration remaining of the initial concentration: 100%
[3]; pure acetonitrile
  Photo-degradation: 60%
[3]; qualitative
  Photo-degradation upon exposure to an ultraviolet light source: marked photo-degradation
[4]; 0.2 M vs 0.5 M, pH 9, borate buffer
  Effect of ionic strength on degradation rate: No difference in degradation rate
[4]; 56°C, several pH conditions
  Kinetics of thermal degradation: first order degradation kinetics
[4]; citrate vs phosphate, pH 5
  Effect of buffer species on degradation rate: degradation rates are similar
[4]; increase from approximately 0.2 M to 0.5 M, pH 3 and pH 5
  Effect of ionic strength on stability half-life: nominal effects
[4]; pH 3, citrate, ionic strength 0.2
  Ea: 21.2 kcal/mol
[4]; [5]
  T50 at 25°C: 69.6 weeks
  T90 at 25°C: 10.6 weeks
[4]; pH 3, citrate, ionic strength 0.2, 26°C
  k values 26°C: 0.0110 weeks^-1
[4]; pH 3, citrate, ionic strength 0.2, 56°C
  k values 56°C: 0.3057 weeks^-1
[4]; pH 3, citrate, ionic strength 0.2, 67°C
  k values 67°C: 0.7808 weeks^-1
[4]; pH 3, citrate, ionic strength 0.5
  Ea: 22.1 kcal/mol
[4]; [6]
  T50 at 25°C: 75.4 weeks
  T90 at 25°C: 11.5 weeks
[4]; pH 3, citrate, ionic strength 0.5, 26°C
  k values 26°C: 0.0101 weeks^-1
[4]; pH 3, citrate, ionic strength 0.5, 56°C
  k values 56°C: 0.3413 weeks^-1
[4]; pH 3, citrate, ionic strength 0.5, 67°C
  k values 67°C: 0.8383 weeks^-1
[4]; pH 3 citrate, 26°C, from Table 1
  T90 without hydrogen peroxide: about 9.5 weeks
[4]; pH 4, citrate, ionic strength 0.2
  Ea: 20.3 kcal/mol
[4]; pH 4, citrate, ionic strength 0.2, 25°C
  T50 at 25°C: 112.9 weeks
[4]; pH 4, citrate, ionic strength 0.2, 26°C
  k values 26°C: 0.0067 weeks^-1
[4]; pH 4, citrate, ionic strength 0.2, 56°C
  k values 56°C: 0.1739 weeks^-1
[4]; pH 4, citrate, ionic strength 0.2, 67°C
  k values 67°C: 0.3813 weeks^-1
[4]; pH 5, citrate, ionic strength 0.2
  Ea: 20.7 kcal/mol
[4]; [7]
  T50 at 25°C: 87.6 weeks
  T90 at 25°C: 13.3 weeks
[4]; pH 5, citrate, ionic strength 0.2, 26°C
  k values 26°C: 0.0090 weeks^-1
[4]; pH 5, citrate, ionic strength 0.2, 56°C
  k values 56°C: 0.2045 weeks^-1
[4]; pH 5, citrate, ionic strength 0.2, 67°C
  k values 67°C: 0.6125 weeks^-1
[4]; pH 5, phosphate, ionic strength 0.2
  Ea: 21.5 kcal/mol
[4]; [8]
  T50 at 25°C: 101.5 weeks
  T90 at 25°C: 15.4 weeks
[4]; pH 5, phosphate, ionic strength 0.2, 26°C
  k values 26°C: 0.0076 weeks^-1
[4]; pH 5, phosphate, ionic strength 0.2, 56°C
  k values 56°C: 0.2201 weeks^-1
[4]; pH 5, phosphate, ionic strength 0.2, 67°C
  k values 67°C: 0.5741 weeks^-1
[4]; pH 5, phosphate, ionic strength 0.5
  Ea: 20.3 kcal/mol
[4]; [9]
  T50 at 25°C: 88.7 weeks
  T90 at 25°C: 13.5 weeks
[4]; pH 5, phosphate, ionic strength 0.5, 26°C
  k values 26°C: 0.0090 weeks^-1
[4]; pH 5, phosphate, ionic strength 0.5, 56°C
  k values 56°C: 0.1764 weeks^-1
[4]; pH 5, phosphate, ionic strength 0.5, 67°C
  k values 67°C: 0.5741 weeks^-1
[4]; pH 6, phosphate, ionic strength 0.2
  Ea: 22.7 kcal/mol
[4]; [10]
  T50 at 25°C: 75.5 weeks
  T90 at 25°C: 11.5 weeks
[4]; pH 6, phosphate, ionic strength 0.2, 26°C
  k values 26°C: 0.0108 weeks^-1
[4]; pH 6, phosphate, ionic strength 0.2, 56°C
  k values 56°C: 0.2919 weeks^-1
[4]; pH 6, phosphate, ionic strength 0.2, 67°C
  k values 67°C: 1.1652 weeks^-1
[4]; pH 7, phosphate, ionic strength 0.2
  Ea: 22.5 kcal/mol
[4]; [11]
  T50 at 25°C: 16.0 weeks
  T90 at 25°C: 2.4 weeks
[4]; pH 7, phosphate, ionic strength 0.2, 26°C
  k values 26°C: 0.0506 weeks^-1
[4]; pH 7, phosphate, ionic strength 0.2, 56°C
  k values 56°C: 1.3607 weeks^-1
[4]; pH 7, phosphate, ionic strength 0.2, 67°C
  k values 67°C: 5.1370 weeks^-1
[4]; pH 8, borate, ionic strength 0.2
  Ea: 19.8 kcal/mol
[4]; pH 8, borate, ionic strength 0.2, 4°C
  k values 4°C: 0.0232 weeks^-1
[4]; [12]
  T50 at 25°C: 2.0 weeks
  T90 at 25°C: 0.3 weeks
[4]; pH 8, borate, ionic strength 0.2, 26°C
  k values 26°C: 0.5120 weeks^-1
[4]; pH 8, borate, ionic strength 0.2, 56°C
  k values 56°C: 7.2924 weeks^-1
[4]; pH 8, borate, ionic strength 0.2, 67°C
  k values 67°C: 20.933 weeks^-1
[4]; pH 9, borate, ionic strength 0.2
  Ea: 22.7 kcal/mol
[4]; pH 9, borate, ionic strength 0.2, 4°C
  k values 4°C: 0.1182 weeks^-1
[4]; [13]
  T50 at 25°C: 0.3 weeks
  T90 at 25°C: 0.05 weeks
[4]; pH 9, borate, ionic strength 0.2, 26°C
  k values 26°C: 2.4375 weeks^-1
[4]; pH 9, borate, ionic strength 0.5
  Ea: 22.7 kcal/mol
[4]; pH 9, borate, ionic strength 0.5, 4°C
  k values 4°C: 0.1171 weeks^-1
[4]; [14]
  T50 at 25°C: 0.3 weeks
  T90 at 25°C: 0.05 weeks
[4]; pH 9, borate, ionic strength 0.5, 26°C
  k values 26°C: 2.4372 weeks^-1
[4]; pH degradation rate profile, 26, 56, 67°C
  pH of maximum stability: ~4
[4]; pH values ≥ 7 and 3, various temperatures
  Stability in pH degradation rate profile: significant instability
[4]; stability samples at pH 3, 5 and 8, LC-MS
  Major degradation products: 3,4,5- trimethoxycinnamic acid and piperlongumic acid
